Active and inactive are the calls of the source. The calls are words filed in the database; no cut-off is given here.
What was measured:
[1] = target: T1, Steroid hormone receptor ERR1 (Homo sapiens) (UniProt P11474); assay: Inverse agonist activity at GAL4-DNA binding domain-fused human ERRalpha ligand binding domain expressed in African green monkey CV1 cells assessed as decrease in receptor transcriptional activity at 10 uM after 45 hrs by luciferase reporter gene assay; format: cell-based
T1 sequence (whole entry): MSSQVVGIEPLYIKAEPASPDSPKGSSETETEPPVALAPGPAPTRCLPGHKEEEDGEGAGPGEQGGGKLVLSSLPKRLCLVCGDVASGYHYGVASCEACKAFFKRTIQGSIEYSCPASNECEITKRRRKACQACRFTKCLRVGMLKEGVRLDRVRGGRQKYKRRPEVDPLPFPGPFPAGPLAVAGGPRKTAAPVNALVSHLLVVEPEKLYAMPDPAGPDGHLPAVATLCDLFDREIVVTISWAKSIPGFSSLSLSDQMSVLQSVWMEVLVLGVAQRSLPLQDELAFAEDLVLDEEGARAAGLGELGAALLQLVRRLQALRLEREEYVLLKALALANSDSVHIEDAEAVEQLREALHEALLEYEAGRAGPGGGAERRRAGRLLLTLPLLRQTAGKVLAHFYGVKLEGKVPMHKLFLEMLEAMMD

[2] = target: T2, Estrogen-related receptor gamma (Mus musculus, UniProt P62509)
T2 sequence (P62509 whole entry): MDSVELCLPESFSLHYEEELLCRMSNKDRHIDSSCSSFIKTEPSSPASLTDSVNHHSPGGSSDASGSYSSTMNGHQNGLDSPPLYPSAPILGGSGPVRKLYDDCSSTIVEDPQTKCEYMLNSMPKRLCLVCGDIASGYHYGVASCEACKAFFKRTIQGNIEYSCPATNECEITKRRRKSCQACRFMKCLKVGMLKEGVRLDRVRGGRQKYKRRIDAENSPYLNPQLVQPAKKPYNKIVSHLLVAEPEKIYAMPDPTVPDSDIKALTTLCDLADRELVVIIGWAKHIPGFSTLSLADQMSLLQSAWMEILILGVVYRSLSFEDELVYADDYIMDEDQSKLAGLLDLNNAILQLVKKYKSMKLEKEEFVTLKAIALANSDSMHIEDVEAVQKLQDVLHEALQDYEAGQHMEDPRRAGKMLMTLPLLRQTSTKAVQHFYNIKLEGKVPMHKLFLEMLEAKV
Description: Inverse agonist activity at GAL4-DNA binding domain-fused mouse ERRgamma ligand binding domain expressed in African green monkey CV1 cells assessed as decrease in receptor transcriptional activity after 45 hrs by luciferase reporter gene assay

[3] = target: T3, Estrogen receptor (Homo sapiens) (UniProt P03372); assay: Inverse agonist activity at human ERalpha expressed in African green monkey CV1 cells assessed as decrease in receptor transcriptional activity up to 3 uM after 45 hrs by luciferase reporter gene assay; format: cell-based
T3 sequence (whole entry): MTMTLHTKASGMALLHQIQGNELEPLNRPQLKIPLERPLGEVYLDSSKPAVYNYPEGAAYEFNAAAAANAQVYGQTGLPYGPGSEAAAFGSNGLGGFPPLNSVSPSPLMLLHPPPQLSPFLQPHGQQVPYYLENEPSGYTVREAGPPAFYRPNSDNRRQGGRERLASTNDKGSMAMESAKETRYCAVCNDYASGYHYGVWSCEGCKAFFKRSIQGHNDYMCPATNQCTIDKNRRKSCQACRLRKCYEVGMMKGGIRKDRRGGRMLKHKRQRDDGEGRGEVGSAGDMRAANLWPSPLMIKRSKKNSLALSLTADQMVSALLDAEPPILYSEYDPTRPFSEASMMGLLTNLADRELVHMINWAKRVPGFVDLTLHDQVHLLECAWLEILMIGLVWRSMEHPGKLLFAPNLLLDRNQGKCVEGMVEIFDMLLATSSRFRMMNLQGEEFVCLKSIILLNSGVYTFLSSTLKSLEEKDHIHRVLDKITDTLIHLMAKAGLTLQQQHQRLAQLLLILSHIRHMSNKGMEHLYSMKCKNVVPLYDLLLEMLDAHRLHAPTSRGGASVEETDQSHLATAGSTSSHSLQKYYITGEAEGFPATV

[4] = target: Estrogen receptor beta (Homo sapiens) (UniProt Q92731); assay: Inverse agonist activity at human ERbeta expressed in African green monkey CV1 cells assessed as decrease in receptor transcriptional activity up to 3 uM after 45 hrs by luciferase reporter gene assay; format: cell-based
Chain of Estrogen receptor beta (Homo sapiens) (Q92731 whole entry, the tested form may be a part): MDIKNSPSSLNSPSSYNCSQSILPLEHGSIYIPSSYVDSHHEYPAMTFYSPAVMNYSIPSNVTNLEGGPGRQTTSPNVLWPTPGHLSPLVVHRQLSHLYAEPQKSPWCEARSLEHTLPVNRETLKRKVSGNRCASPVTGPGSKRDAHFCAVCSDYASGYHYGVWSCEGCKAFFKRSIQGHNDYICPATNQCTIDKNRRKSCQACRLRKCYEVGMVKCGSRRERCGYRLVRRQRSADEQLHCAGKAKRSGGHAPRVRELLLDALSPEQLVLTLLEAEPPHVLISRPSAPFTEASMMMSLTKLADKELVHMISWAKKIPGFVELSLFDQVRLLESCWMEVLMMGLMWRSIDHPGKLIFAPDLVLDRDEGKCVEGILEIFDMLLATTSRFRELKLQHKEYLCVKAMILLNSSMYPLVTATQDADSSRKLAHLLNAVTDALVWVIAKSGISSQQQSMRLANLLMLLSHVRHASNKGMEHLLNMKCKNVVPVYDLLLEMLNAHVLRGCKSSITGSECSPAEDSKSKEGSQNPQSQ

[5] = target: T1, Steroid hormone receptor ERR1 (Homo sapiens); assay: Inverse agonist activity at GAL4-DNA binding domain-fused human ERRalpha ligand binding domain expressed in African green monkey CV1 cells assessed as decrease in receptor transcriptional activity after 45 hrs by luciferase reporter gene assay; format: cell-based
[6] = target: T3, Estrogen receptor (Homo sapiens); assay: Antagonist activity at human ERalpha expressed in African green monkey CV1 cells assessed as decrease in receptor transcriptional activity after 45 hrs by luciferase reporter gene assay; format: cell-based

With `CC(=O)Oc1ccc(/C(=C(\CCCO)c2ccccc2)c2ccc(OCCN(C)C)cc2)cc1` the Activity [1] was “inactive” and the IC50 [2] was 300 nM.
For `COC(=O)CC/C(=C(\c1ccc(O)cc1)c1ccc(OCCN(C)C)cc1)c1ccccc1`, the Activity [1] was “inactive”, the Activity [3] was “inactive” and the Activity [4] was “inactive”.
`CC(C)/C(=C(\c1ccc(O)cc1)c1ccc(OCCN(C)C)cc1)c1ccccc1` was tested, and the Activity [1] was “inactive”.
In the case of `COC(=O)CCC(=C(c1ccc(O)cc1)c1ccc(O)cc1)c1ccccc1`, the Activity [1] is reported as “inactive”.
`CC/C(=C(\c1ccc(O)cc1)c1ccc(OCCN(C)C)cc1)c1ccccc1` was tested, and the Activity [1] was “inactive”.
With `CC/C(=C(/c1ccc(O)cc1)c1ccc(OCCN(C)C)cc1)c1ccccc1` the Activity [5] was “inactive”.
For `COC(=O)C(C)C/C(=C(\c1ccc(O)cc1)c1ccc(OCCN(C)C)cc1)c1ccccc1` (stereo not given), the Activity [1] was “inactive”, the Activity [3] was “inactive” and the Activity [4] was “inactive”.
`CC(=O)Oc1ccc(/C(=C(/c2ccccc2)C(C)C)c2ccc(OCCN(C)C)cc2)cc1` was tested, and the Activity [1] was “inactive” and the inhibition [6] was “Active”.
In the case of `CN(C)CCOc1ccc(/C(=C(/CCCO)c2ccccc2)c2ccc(O)cc2)cc1`, the Activity [1] is reported as “inactive”.
`COC(=O)C(C)CC(=C(c1ccc(O)cc1)c1ccc(O)cc1)c1ccccc1` (stereo not given) was tested, and the Activity [1] was “inactive”.
With `CC(C)C/C(=C(\c1ccc(O)cc1)c1ccc(OCCN(C)C)cc1)c1ccccc1` the Activity [1] was “inactive” and the IC50 [2] was 1000 nM.
In the case of `CC(=O)Oc1ccc(/C(=C(\CC(C)CO)c2ccccc2)c2ccc(OCCN(C)C)cc2)cc1` (stereo not given), the Activity [1] is reported as “inactive”.
`CC(CO)C/C(=C(\c1ccc(O)cc1)c1ccc(OCCN(C)C)cc1)c1ccccc1` (stereo not given) was tested, and the Activity [1] was “inactive”.

From ChEMBL document CHEMBL3997814, “Identification of novel inverse agonists of estrogen-related receptors ERRγ and ERRβ” (Bioorg Med Chem, 2017)
